Laboratory results taken from PMC6804443 (Acta Pharmaceutica Sinica. B, 2019).
Where two headings read alike, the source gives them in different places.

Legend:
[1] = target: T1, OAT2 (Homo sapiens, UniProt Q9Y694); test: OAT2 inhibition by antibiotics, transfected HEK293 cells, tanshinol as substrate; assay type: in vitro ADME; conditions: for inhibition at 1000 µM: HEK293, read-out: Inhibition of OAT2
T1 sequence (Q9Y694 1-546 isoform Q9Y694-2): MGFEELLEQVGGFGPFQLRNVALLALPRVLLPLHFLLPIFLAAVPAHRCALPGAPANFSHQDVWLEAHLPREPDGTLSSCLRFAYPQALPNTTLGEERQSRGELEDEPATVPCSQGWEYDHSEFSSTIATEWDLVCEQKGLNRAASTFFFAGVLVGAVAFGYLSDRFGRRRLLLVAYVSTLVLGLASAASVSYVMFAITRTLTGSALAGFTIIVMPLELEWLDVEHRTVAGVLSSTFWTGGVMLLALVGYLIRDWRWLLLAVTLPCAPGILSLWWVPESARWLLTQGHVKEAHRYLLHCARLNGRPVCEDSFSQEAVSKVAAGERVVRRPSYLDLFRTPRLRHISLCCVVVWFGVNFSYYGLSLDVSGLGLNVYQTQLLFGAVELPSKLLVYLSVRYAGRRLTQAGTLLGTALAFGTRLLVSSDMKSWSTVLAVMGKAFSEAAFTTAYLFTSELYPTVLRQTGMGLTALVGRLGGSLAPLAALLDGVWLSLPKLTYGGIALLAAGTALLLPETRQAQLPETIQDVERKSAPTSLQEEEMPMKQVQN

[2] = target: T2, OATP1B3 (Homo sapiens, UniProt Q9NPD5); conditions: for Inhibition DDI index, OATP1B3: antibiotic as perpetrator, salvianolic acid B (X10) as victim, (Cmax × fu-p × R)/IC50
T2 sequence (Q9NPD5 1-702): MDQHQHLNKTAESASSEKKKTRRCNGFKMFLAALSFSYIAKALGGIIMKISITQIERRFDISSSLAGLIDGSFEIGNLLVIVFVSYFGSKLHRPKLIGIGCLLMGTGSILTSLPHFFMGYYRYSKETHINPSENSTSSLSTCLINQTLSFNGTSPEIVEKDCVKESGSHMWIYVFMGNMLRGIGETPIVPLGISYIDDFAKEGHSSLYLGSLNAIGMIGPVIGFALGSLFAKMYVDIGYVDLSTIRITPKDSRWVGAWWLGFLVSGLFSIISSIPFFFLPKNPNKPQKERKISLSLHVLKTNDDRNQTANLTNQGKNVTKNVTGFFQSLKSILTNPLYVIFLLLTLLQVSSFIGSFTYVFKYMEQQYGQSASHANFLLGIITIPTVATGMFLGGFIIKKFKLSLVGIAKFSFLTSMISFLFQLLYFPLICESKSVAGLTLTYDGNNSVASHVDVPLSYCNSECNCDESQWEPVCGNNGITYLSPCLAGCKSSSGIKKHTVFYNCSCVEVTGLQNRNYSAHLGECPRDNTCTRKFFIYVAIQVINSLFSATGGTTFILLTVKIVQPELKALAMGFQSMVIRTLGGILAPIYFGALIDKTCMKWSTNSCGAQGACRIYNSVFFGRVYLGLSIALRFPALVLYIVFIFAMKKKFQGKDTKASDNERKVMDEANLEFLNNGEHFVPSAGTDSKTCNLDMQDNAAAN

[3] = target: T3, UGT2B15 (Homo sapiens, UniProt P54855); assay type: in vitro ADME; conditions: for Inhibition DDI index, UGT2B15: antibiotic as perpetrator, senkyunolide I (X5) as victim, (Cmax × fu-p × R)/IC50
T3 sequence (P54855 24-530): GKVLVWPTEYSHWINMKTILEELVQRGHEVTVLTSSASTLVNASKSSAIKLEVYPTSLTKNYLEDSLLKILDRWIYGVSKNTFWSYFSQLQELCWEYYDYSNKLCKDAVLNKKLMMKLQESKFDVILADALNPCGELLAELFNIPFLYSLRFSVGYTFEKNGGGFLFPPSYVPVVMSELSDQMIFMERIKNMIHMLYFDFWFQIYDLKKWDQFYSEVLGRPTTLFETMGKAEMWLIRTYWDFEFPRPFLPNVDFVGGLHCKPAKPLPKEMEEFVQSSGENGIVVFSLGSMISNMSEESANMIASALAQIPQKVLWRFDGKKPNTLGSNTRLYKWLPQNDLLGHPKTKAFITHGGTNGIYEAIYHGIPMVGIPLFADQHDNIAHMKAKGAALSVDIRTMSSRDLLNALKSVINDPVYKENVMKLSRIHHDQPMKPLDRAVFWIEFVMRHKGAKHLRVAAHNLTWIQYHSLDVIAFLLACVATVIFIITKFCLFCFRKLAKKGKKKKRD

[4] = system: ALDH; assay type: in vitro ADME; conditions: human, pooled human liver cytosol
[5] = target: T2, OATP1B3; conditions: IC50, OATP1B3 [X10], mean ± SD (n = 3)
[6] = target: T2, OATP1B3; test: in vitro
[7] = target: T4, OAT1 (Homo sapiens, UniProt Q4U2R8); test: OAT1 inhibition by antibiotics, transfected HEK293 cells, tanshinol as substrate; conditions: for Inhibition DDI index, OAT1: antibiotic as perpetrator, tanshinol (X8) as victim, (Cmax × fu-p × R)/IC50
T4 sequence (Q4U2R8 1-563): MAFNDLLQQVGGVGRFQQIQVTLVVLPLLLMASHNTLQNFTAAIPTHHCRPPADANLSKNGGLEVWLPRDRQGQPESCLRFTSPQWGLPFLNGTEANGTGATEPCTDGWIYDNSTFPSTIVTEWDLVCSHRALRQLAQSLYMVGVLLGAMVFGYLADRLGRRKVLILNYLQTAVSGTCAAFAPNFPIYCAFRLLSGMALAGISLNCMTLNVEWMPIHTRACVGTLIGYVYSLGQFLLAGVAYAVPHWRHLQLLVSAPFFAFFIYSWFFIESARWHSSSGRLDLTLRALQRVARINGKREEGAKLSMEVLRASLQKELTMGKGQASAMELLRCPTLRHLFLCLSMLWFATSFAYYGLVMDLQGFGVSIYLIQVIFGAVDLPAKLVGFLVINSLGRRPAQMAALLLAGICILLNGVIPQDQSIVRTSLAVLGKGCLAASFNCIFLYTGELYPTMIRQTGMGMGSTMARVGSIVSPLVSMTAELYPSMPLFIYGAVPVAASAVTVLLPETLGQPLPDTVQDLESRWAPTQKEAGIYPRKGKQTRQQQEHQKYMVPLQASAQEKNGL

[8] = target: T4, OAT1; test: OAT1 inhibition by XueBiJing compounds, transfected HEK293 cells [PAH]; assay type: in vitro ADME
[9] = target: T1, OAT2; assay type: in vitro ADME
[10] = system: CYP2B6; test: CYP2B6 induction by XueBiJing compounds in cryopreserved human hepatocytes; assay type: in vitro ADME; conditions: higher concentrations; range over the named compounds and enzymes
[11] = cited from earlier work; for fu-p (unbound fraction in plasma): human plasma; for Cmax / VSS / t1/2: XueBiJing 100 mL via 75-min intravenous infusion
[12] = system: P450 enzymes, UGTs, SULTs, OATP1B1/1B3, OAT1/3, OCT2, MATE1/2-K, MDR1, BCRP; conditions: cited from earlier work
[13] = system: CYP3A4; conditions: higher concentrations; range over the named compounds and enzymes
[14] = XueBiJing compounds, cited from earlier work; for LogD(7.4): pH 7.4
[15] = XueBiJing compounds; cited from earlier work

Compound | Inhibition DDI index, OATP1B3 [2] | IC50 [3] [µM] | inhibition at 1000 μmol/L ([3]; human, cDNA-expressed UGT2B15) [%] | IC50 [4] [µM] | inhibition at 1000 μmol/L [4] [%] | IC50 [5] [µM] | inhibition at 1000 μmol/L [6] [%] | IC50 [7] [µM] | Inhibition DDI index, OAT1 [7] | inhibition at 1000 μmol/L ([7]; human) [%] | further results
teicoplanin [A26] | 0.60 |  |  |  |  |  |  |  |  |  | IC50 ([1]; read-out: IC50, OAT2 [X8], mean ± SD (n = 3)): 64 ± 14 µM; IC50 ([2]; read-out: IC50, OATP1B3 [X10], mean ± SD (n = 3)): 8 ± 2 µM; Inhibition of OATP1B3 ([2]; test concentration 100 μmol/L): > 90%
Cc1onc(-c2c(F)cccc2Cl)c1C(=O)N[C@@H]1C(=O)N2[C@@H]1SC(C)(C)[C@@H]2C(=O)O [A19, flucloxacillin] | 1.07 | 336 ± 83 | 60 to 88 | 45 ± 6 | 56 to 88 | 26 ± 9 | > 90 | 173 ± 27 | 0.16 | ≥ 90 | IC50 [1]: 729 ± 131 µM; inhibition at 1000 µM [1]: 60 to 84%
CC[C@H](C)C[C@H](C)CCCCCCCCC(=O)N[C@H]1C[C@@H](O)[C@@H](NCCN)NC(=O)[C@@H]2[C@@H](O)CCN2C(=O)[C@H]([C@H](O)CCN)NC(=O)[C@H]([C@H](O)[C@@H](O)c2ccc(O)cc2)NC(=O)[C@@H]2C[C@@H](O)CN2C(=O)[C@H]([C@@H](C)O)NC1=O [A41, caspofungin] | 0.35 | 39 ± 2 |  |  |  | 1 |  | 7 ± 2 |  |  | inhibition at 100 μmol/L ([3]; human, cDNA-expressed UGT2B15): 60 to 88%; inhibition at 100 μmol/L [6]: > 90%; inhibition at 100 μmol/L ([7]; human): 63 to 88%
CO[C@@]1(NC(=O)Cc2cccs2)C(=O)N2C(C(=O)O)=C(COC(N)=O)CS[C@@H]21 [A20, cefoxitin] | 2.81 | 57 ± 11 | ≥ 90 | 983 ± 117 | 56 to 88 | 26 ± 19 | > 90 |  |  |  | Inhibition DDI index, UGT2B15 [3]: 1.28
Cc1onc(-c2ccccc2)c1C(=O)N[C@@H]1C(=O)N2[C@@H]1SC(C)(C)[C@@H]2C(=O)O [A17, oxacillin] | 4.64 |  |  | 465 ± 72 | 56 to 88 | 11 ± 2 | > 90 | 99 ± 31 | 0.52 | 63 to 88 | IC50 [1]: 467 ± 97 µM; inhibition at 1000 µM [1]: 60 to 84%; Inhibition DDI index, OAT2 ([1]; antibiotic as perpetrator, tanshinol (X8) as victim, (Cmax × fu-p × R)/IC50): 0.11
CCCCC1(O)OC(=O)C2=C1CCC=C2 (stereo not shown) [X7, senkyunolide G] |  |  |  |  |  |  |  |  |  |  | Inhibition of OAT1 ([8]; 100 μmol/L): > 50%; IC50 ([8]; read-out: IC50, OAT1 [PAH], mean ± SD (n = 3)): 11 ± 3 µM; Inhibition of OAT2 ([9]; 100 μmol/L): > 50%; IC50 ([9]; read-out: IC50, OAT2 [prostaglandin F2α], mean ± SD (n = 3)): 51 ± 5 µM; mRNA-T/U ratio, CYP2B6 [10]: 4.0 to 9.6; fu-p (unbound fraction in plasma) [11]: 3%; Cmax ([11]; human): 500 nM; VSS ([11]; human): 0.10 L/kg; t1/2 ([11]; human): 2.3 h; Major elimination route ([11]; human): Hepatic glucuronidation; Related metabolism and transport data (substrate status) [12]: Poor UGT substrate; mRNA-T/U ratio, CYP3A4 [13]: 4.0 to 9.6; pKa [14]: 10.7; LogD(7.4) [14]: 1.5; Membrane permeability [15]: Good
C[C@@H](c1ncncc1F)[C@](O)(Cn1cncn1)c1ccc(F)cc1F [A45, voriconazole] | 2.16 | 55 ± 6 | ≥ 90 |  |  | 19 ± 8 | 64 to 88 | 189 ± 75 | 0.22 | 63 to 88 | Inhibition DDI index, UGT2B15 [3]: 0.75
C[C@]12C[C@@H](O)[C@@H]3C[C@@]1(O[C@@H]1O[C@H](CO)[C@@H](O)[C@H](O)[C@H]1O)[C@@]3(COC(=O)c1ccccc1)C(=O)O2 [X4, albiflorin] |  |  |  |  |  |  |  |  |  |  | fu-p (unbound fraction in plasma) [11]: 83%; Cmax ([11]; human): 800 nM; VSS ([11]; human): 0.08 L/kg; t1/2 ([11]; human): 0.7 h; Major elimination route ([11]; human): Renal excretion, GF-based; fe-U (fraction of dose excreted unchanged into urine) ([11]; human): 62%; Related metabolism and transport data (substrate status) [12]: Not the substrate of P450 enzymes, UGTs, SULTs, OATP1B1/1B3, OAT1/3, OCT2, MATE1/2-K, MDR1, or BCRP; pKa [14]: 12.8; LogD(7.4) [14]: −0.9; Membrane permeability [15]: Poor
